pIC50: −log10 of the molar value. Blank lines part the entries; values can stand above or below the compound they belong to.
Legend:
[1] = biological target: T1, IRAK4 protein (Homo sapiens, UniProt Q9NWZ3); assay: IRAK4 protein degradation in THP1 cells (Western blot); format: cell-based; conditions: 24 h
T1 construct: Effects of Compounds on IRAK4 Protein Degradation in THP1 Cells; endogenous in cells; host or cells: THP-1 cells
T1 sequence (Q9NWZ3 1-460): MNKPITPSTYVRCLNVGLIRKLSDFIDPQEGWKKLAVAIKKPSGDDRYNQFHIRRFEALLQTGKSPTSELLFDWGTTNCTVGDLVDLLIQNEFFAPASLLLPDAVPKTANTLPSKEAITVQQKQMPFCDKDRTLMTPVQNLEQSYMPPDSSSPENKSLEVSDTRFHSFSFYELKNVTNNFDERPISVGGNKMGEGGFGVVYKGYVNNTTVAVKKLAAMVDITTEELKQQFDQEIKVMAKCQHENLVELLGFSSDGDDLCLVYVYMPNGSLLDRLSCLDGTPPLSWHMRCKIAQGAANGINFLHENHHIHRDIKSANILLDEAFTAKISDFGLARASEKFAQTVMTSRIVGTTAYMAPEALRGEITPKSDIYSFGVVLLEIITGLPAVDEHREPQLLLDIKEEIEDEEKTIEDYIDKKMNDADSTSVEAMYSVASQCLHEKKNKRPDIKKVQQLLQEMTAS
Method: THP-1 cells were inoculated into a 96-well cell culture plate, with 5×10^4 cells and 100 μL of a culture medium per well. The cell culture plate was cultured in an incubator with 5% CO2 at 37° C. overnight. 100 nl of a well-prepared compound stock solution and a compound-free DMSO stock solution were respectively added to cells per well. The cell culture plate was incubated in an incubator with 5% CO2 at 37° C. for 24 h. One protease inhibitor tablet and one phosphatase inhibitor tablet were added to 20 mL of a cell lysis buffer, and they were gently mixed until complete dissolution. DTT at a final concentration of 200 mM was added to a 4× sample preparation buffer to prepare a 4× sample preparation working solution. 20× electrophoretic buffer was diluted to 1× with ultrapure water. 20× transfer buffer was diluted to 1× with ultrapure water, and 20% methanol was added. […] IRAK4 protein primary antibody working solution: 20 μl of IRAK4 antibody added to 20 mL of a blocking solution; β-Actin primary antibody working solution: 2 μl of beta-actin (13E5) Rabbit mAb antibody added to 20 mL of a blocking solution. IRAK4 protein secondary antibody working solution: Donkey Anti-Goat IgG H&L (HRP) diluted 1/5,000 in a blocking solution; 3-Actin secondary antibody working solution: Anti-rabbit IgG, RP-linked antibody diluted 1/10,000 in a blocking solution. The cell culture plate was centrifuged at 3,000 rpm for 3 min, and most of the culture medium was carefully pipetted. The cell plate was inverted, and centrifuged at 300 rpm for 30 s. 45 μL of a lysis buffer was added to each well. The mixture was shaken at 300 rpm for 30 s, allowed to stand on ice for 30 min, and pipetted 30 times at 20 min. 6 μL of 4× sample preparation working solution was added to 18 μL of protein supernatant for sample preparation, and the mixture was heated at 70° C. for 10 min. Remaining protein samples were stored at −80° C. In the precast gel, 8 μl of sample was loaded into each well for electrophoresis at a constant voltage of 120 V for about 60 min, transferred using a PVDF membrane at a constant current of 300 mA for 1 h, then blocked with a blocking solution at room temperature for 1 h, and incubated in a primary antibody working solution at 4° C. overnight. The membrane was washed with 1×TBST buffer for 3×10 min. The secondary antibody working solution was incubated at room temperature for 1 h. The membrane was washed with 1×TBST buffer for 3×10 min, and a chromogenic solution was used for exposure and color development.

[2] = tested on: secretion levels of IL-6 in PBMC cells; assay: Inhibition of LPS+IL-1β-induced IL-6 secretion in PBMC (IL-6 ELISA); format: cell-based; conditions: human PBMC, 24 h compound pre-incubation, 20 h stimulation
Method: This experiment was carried out in RPMI 1640 medium containing 10% FBS/1% penicillin/streptomycin, with each of the compounds at an initial test concentration of 1 μM. The compound DMSO was dissolved to form a stock solution, which was gradiently diluted 5-fold with the culture medium to a 4× working solution concentration. The diluted solution was added to a 96-well plate with 50 μL per well. PBMC (batch No.: HPP20062307, Sichuan Hope Bio-tech Co., Ltd.) cells were counted, and diluted to a concentration of 2×10^6/mL. The diluted cells were added to the above compound-containing 96-well plate with 150 μL per well, fully mixed, and incubated in an incubator with 5% CO2 at 37° C. for 24 h. Then, LPS and […] were further added to final concentrations of 10 ng/mL and 20 ng/mL, respectively, and the cells were further incubated in the incubator with 5% CO2 at 37° C. for 20 h. Then, after centrifugation at 2,000 rpm for 4 min, the supernatant was diluted 110×, and detected using an IL-6 ELISA kit. An OD450 value was read, and converted to an IL-6 concentration based on a standard curve, to calculate an IC50 value by fitting a dose-effect curve using GraphPad 5.0.

[3] = tested on: secretion levels of IL-6 in PBMC cells; assay: Inhibition of R848-induced IL-6 secretion in PBMC (IL-6 ELISA); format: cell-based; conditions: human PBMC, 20 h compound pre-incubation, 24 h stimulation
Method: This experiment was carried out in RPMI 1640 medium containing 10% FBS/1% penicillin/streptomycin, with each of the compounds at an initial test concentration of 1 μM. The compound DMSO was dissolved to form a stock solution, which was gradiently diluted 4-fold with the culture medium to a 4× working solution concentration. The diluted solution was added to a 96-well plate with 50 μL per well. PBMC (batch No.: HPP20062307, Sichuan Hope Bio-tech Co., Ltd.) cells were counted, and diluted to a concentration of 2×10^6/mL. The diluted cells were added to the above compound-containing 96-well plate with 150 μL per well, fully mixed, and incubated in an incubator with 5% CO2 at 37° C. for 20 h. Then, R848 was further added until a final concentration of […], and the cells were further incubated in the incubator with 5% CO2 at 37° C. for additional 24 h. Then, after centrifugation at 2,000 rpm for 4 min, the supernatant was diluted 110×, and detected using an IL-6 ELISA kit. An OD450 value was read, and converted to an IL-6 concentration based on a standard curve, to calculate an IC50 value by fitting a dose-effect curve using GraphPad 5.0.

[4] = Pharmacokinetic experiment on mice (iv and ig); format: in vivo; conditions: mouse, plasma; for bioavailability: ig 5.00 mg/kg vs iv 1.00 mg/kg, read-out: Oral bioavailability Fobs (%); for Cmax: read-out: Peak plasma concentration Cmax
[5] = Metabolic stability in human liver microsome; conditions: liver microsomes
Method: (§1) Blank incubation plates T60 and NCF60 were preheated for 10 min; liver microsome was diluted to 0.56 mg/mL in 100 mM phosphate buffer, 445 μL of the microsome working solution (0.56 mg/mL) was transferred to the preheated “incubation” plates T60 and NCF60, and then the incubation plates T60 and NCF60 were pre-incubated with continuous shaking at 37° C. for 10 min. 54 μL of the liver microsome was transferred to a blank plate, then 6 μL of a NAPDH cofactor was added to the blank plate, and then 180 μL of a quenching solution was added to the blank plate; 5 µL of a composite working solution (100 μM) was added to each of the microsome-containing incubation plates (T60 and NCF60), and the mixture was thoroughly mixed 3 times; 50 μL of a buffer was added to the NCF60 plate, and the mixture was thoroughly mixed 3 times. Timing was started; the plates were incubated with shaking at 37° C. for 60 min; and 180 μL of a quenching solution and 6 μL of the NAPDH cofactor were added to a quenching plate TO. The plates were ensured to be cooled to prevent evaporation. For the T60 plate, the mixture was thoroughly mixed 3 times, and 54 μL of the mixture was immediately transferred to the quenching plate at the time point of 0 min. Then, 44 μL of the NAPDH cofactor was added to the incubation plate (T60). Timing was started; and the plate was incubated with shaking at 37° C. for 60 min. At 5, 15, 30, 45, and 60 min, 180 μL of the quenching solution was added to the quenching plate, mixed once, and then 60 μL of sample was continuously transferred from the plate T60 to the quenching plate at each time point.
(§2) For NCF60, the mixture was mixed once, and at the time point of 60 min, 60 μL of sample was transferred from the NCF60 incubator to the quenching solution-containing quenching plate. All sampling plates were shaken for 10 min, then centrifuged at 4,000 rpm at 4° C. for 20 min. 80 µL of the supernatant was transferred to 240 μL of HPLC water, and mixed using a plate shaker for 10 min.

[6] = Metabolic stability in mouse liver microsome; conditions: liver microsomes
Method: as §1, §2

[7] = Pharmacokinetic experiment on SD rats (iv and ig); format: in vivo; conditions: Sprague-Dawley, rat, plasma; for Cmax: read-out: Peak plasma concentration Cmax; for bioavailability: ig 5.00 mg/kg vs iv 1.00 mg/kg, read-out: Oral bioavailability Fobs (%)
Method: Pharmacokinetic experiment on SD rats: in this experiment, two administration modes: oral intragastric administration and tail vein injection were selected. Each of the compounds of the present patented invention was administered at an oral dose of 5 mg/kg at an administration volume of 10 mL/kg. […] Appropriate amounts of Solutol and H2O were proportionally added sequentially, and fully mixed ultrasonically by vortexing, to prepare a clear drug solution at 0.5 mg/mL. ICL004-protodrug was administered by intravenous injection at a dose of 1 mg/kg at an administration volume of 10 mL/kg. Right before use, an appropriate amount of the drug was accurately weighed, to prepare a final volume of 20% PEG 400 and 80% Saline. Appropriate amounts of PEG 400 and Saline were proportionally added sequentially, and fully mixed ultrasonically by vortexing, to prepare a clear drug solution at 0.1 mg/mL.
6 SD rats, each with body weight of 180-220 g, were randomly grouped into 2 groups. After fasting but with free access to water overnight, each […] in the first group was administered by gavage. 200 μL of blood was sampled from its eye socket into an anticoagulant tube respectively at each time point of 15 min, 30 min, 1 h, 2 h, 4 h, 6 h, 8 h, and 24 h after administration. Within one h, each of the blood samples was centrifuged at 10,000 rpm at 4° C. for 20 min (the sample was stored on an ice box prior to the centrifugation), and the supernatant (i.e., the plasma) was stored in a refrigerator at −20° C. for LC-MS/MS analysis. 200 μL of blood was sampled from the eye socket of each […] in the second group into an anticoagulant tube respectively at each time point of 5 min, 15 min, 30 min, 1 h, 2 h, 4 h, 8 h, and 24 h after administration by intravenous injection. Within one h, each of the blood samples was centrifuged at 10,000 rpm at 4° C. for 20 min (the blood sample was stored on an ice box prior to the centrifugation), and the supernatant, i.e., the plasma, was stored in a refrigerator at −20° C. for LC-MS/MS analysis.

[8] = po, BALB/c Mice, ig, 5.00 mg/kg

DC50 [1]: 0.9 nM
SMILES: Cc1nn(C2CCC(=O)NC2=O)c2cccc(N3CC4CN(C[C@H]5CC[C@H](n6cc7cc(NC(=O)c8cnn9cccnc89)c(N(C)C)cc7n6)CC5)CC4C3)c12 (some centres unmarked) [TM-102]
pIC50 [2]: 8.23

DC50 [1]: 4.81 nM
SMILES: Cc1nn(C2CCC(=O)NC2=O)c2cccc(N3CC4CN(C[C@H]5CC[C@H](n6cc7cc(NC(=O)c8cnn9cccnc89)c(N8CCO[C@H](C)C8)cc7n6)CC5)CC4C3)c12 (some centres unmarked) [TM-55]
pIC50 [3]: 8.29
pIC50 [2]: 8.12

DC50 [1]: 0.044 nM
SMILES: Cc1nn(C2CCC(=O)NC2=O)c2cncc(N3CCC(CN4CCC(n5cc6cc(NC(=O)c7cnn8cccnc78)c(N(C)C)cc6n5)CC4)CC3)c12 (centres unmarked) [TM-106]
pIC50 [2]: 7.26

DC50 [1]: 1.06 nM
SMILES: Cc1nn(C2CCC(=O)NC2=O)c2ccnc(N3CCC4(CC3)CN(C[C@H]3CC[C@H](n5cc6cc(NC(=O)c7cnn8cccnc78)c(N(C)C)cc6n5)CC3)C4)c12 (some centres unmarked) [TM-113]
pIC50 [2]: 9.21

bioavailability ([4]; po, ICR Mice): 91.9%
AUC ([4]; po, ICR Mice, ig, 5.00 mg/kg): 2510 ng·h/mL
AUC(0-inf) ([4]; po, ICR Mice, ig, 5.00 mg/kg): 2820 ng·h/mL
Cmax ([4]; po, ICR Mice, ig, 5.00 mg/kg): 220 ng/mL
AUC ([4]; ICR Mice, iv, 1.00 mg/kg): 524 ng·h/mL
AUC(0-inf) ([4]; ICR Mice, iv, 1.00 mg/kg): 613 ng·h/mL
Cmax ([4]; ICR Mice, iv, 1.00 mg/kg): 81 ng/mL
half-life at 1 µM [5]: 1.35 h
half-life at 1 µM [6]: 1.17 h
AUC ([7]; iv, 1.00 mg/kg): 1900 ng·h/mL
AUC(0-inf) ([7]; iv, 1.00 mg/kg): 1980 ng·h/mL
Cmax ([7]; iv, 1.00 mg/kg): 477 ng/mL
bioavailability ([7]; po): 10.7%
AUC ([7]; po, ig, 5.00 mg/kg): 1060 ng·h/mL
AUC(0-inf) ([7]; po, ig, 5.00 mg/kg): 1120 ng·h/mL
Cmax ([7]; po, ig, 5.00 mg/kg): 96 ng/mL
SMILES: Cc1nn(C2CCC(=O)NC2=O)c2cccc(OC3CCN(C[C@H]4CC[C@H](n5cc6cc(NC(=O)c7cnn8cccnc78)c(N7CCOCC7)cc6n5)CC4)CC3)c12 (some centres unmarked) [TM-56]
pIC50 [2]: 8.26

DC50 [1]: 0.57 nM
SMILES: Cc1nn(C2CCC(=O)NC2=O)c2cccc(N3CCC(CN4CCC(N5Cc6cc(NC(=O)c7cnn8cccnc78)c(N(C)C)cc6C5=O)CC4)CC3)c12 (centres unmarked) [TM-66]
pIC50 [3]: 6.58
pIC50 [2]: 7.71

bioavailability ([4]; po, BALB/c Mice): 20.1%
AUC [4, 8]: 3370 ng·h/mL
AUC(0-inf) [4, 8]: 3550 ng·h/mL
Cmax [4, 8]: 356 ng/mL
AUC ([4]; BALB/c Mice, iv, 1.00 mg/kg): 3390 ng·h/mL
AUC(0-inf) ([4]; BALB/c Mice, iv, 1.00 mg/kg): 3520 ng·h/mL
Cmax ([4]; BALB/c Mice, iv, 1.00 mg/kg): 580 ng/mL
DC50 [1]: < 0.1 nM
AUC ([7]; iv, 1.00 mg/kg): 625 ng·h/mL
AUC(0-inf) ([7]; iv, 1.00 mg/kg): 674 ng·h/mL
Cmax ([7]; iv, 1.00 mg/kg): 151 ng/mL
bioavailability ([7]; po): 11.1%
AUC ([7]; po, ig, 5.00 mg/kg): 374 ng·h/mL
AUC(0-inf) ([7]; po, ig, 5.00 mg/kg): 435 ng·h/mL
Cmax ([7]; po, ig, 5.00 mg/kg): 23 ng/mL
SMILES: Cc1nn(C2CCC(=O)NC2=O)c2cccc(N3CCC4(CC3)CN(C[C@H]3CC[C@H](n5cc6cc(NC(=O)c7cnn8cccnc78)c(N(C)C)cc6n5)CC3)C4)c12 (some centres unmarked) [TM-101]
pIC50 [2]: 8.93

SMILES: COc1cc2nn([C@H]3CC[C@H](CN4CCC(c5cccc6c5c(C)nn6C5CCC(=O)NC5=O)CC4)CC3)cc2cc1NC(=O)c1cnn2ccc(N3CCOCC3)nc12 (some centres unmarked) [TM-27]
pIC50 [3]: 7.33
pIC50 [2]: 8.02

SMILES: Cc1nn(C2CCC(=O)NC2=O)c2cccc(N3CCN(C[C@H]4CC[C@H](n5cc6cc(NC(=O)c7cnn8cccnc78)c(N7CCO[C@H](C)C7)cc6n5)CC4)CC3)c12 (some centres unmarked) [TM-54]
pIC50 [3]: 8.37
pIC50 [2]: 8.20

DC50 [1]: 0.58 nM
SMILES: Cc1nn(C2CCC(=O)NC2=O)c2cccc(N3CCCN(C[C@H]4CC[C@H](n5cc6cc(NC(=O)c7cnn8cccnc78)c(N(C)C)cc6n5)CC4)CC3)c12 (some centres unmarked) [TM-96]
pIC50 [2]: 8.14

SMILES: Cc1nn(C2CCC(=O)NC2=O)c2cccc(N3CCN(C[C@H]4CC[C@H](N5Cc6cc(NC(=O)c7cnn8cccnc78)c(N7CCOCC7)cc6C5=O)CC4)CC3)c12 (some centres unmarked) [TM-58]
pIC50 [3]: 8.45
pIC50 [2]: 8.45

From patent publication US20260146044A1, “AROMATIC COMPOUND, PHARMACEUTICAL COMPOSITION CONTAINING SAME, AND USE THEREOF” (Increland, priority 2023, published 2026)
